In this assay the test system is T1, FC rutinosidase.
T1 construct: gene f3g; native, purified from dehulled seeds (Q-Sepharose, Superdex 200, Mono Q twice); 58,400 +/- 2700 Da by gel filtration; single isozyme in native-PAGE
The assay can be described thus: UPLC of released quercetin; Lineweaver-Burk. It is filed as biochemical, Fagopyrum cymosum. The conditions noted are these: 50 mM acetate-LiOH pH 5.0, 20% (v/v) methanol, 25 °C (standard assay). An excerpt:
UPLC of released quercetin; Lineweaver-Burk on FC rutinosidase

Broadly, the Km is the concentration of substrate that gives half-maximal velocity.

In the case of `C[C@@H]1O[C@@H](OC[C@H]2O[C@@H](Oc3c(-c4ccc(O)c(O)c4)oc4cc(O)cc(O)c4c3=O)[C@H](O)[C@@H](O)[C@@H]2O)[C@H](O)[C@H](O)[C@H]1O` [rutin], the Km turned out to be 367 ± 23.5 µM.

These data come from article PMC10093837, “Rutin Concentration and Characterization of Rutinosidase in Perennial Buckwheat (Fagopyrum cymosum) and Its Application in Foods” (Foods, 2023).
